Reference: patent US10738070B2, “Mannose-derived antagonists of FimH useful for treating disease” (Fimbrion Therapeutics, Inc., priority 2016, dated 2020)

Experiments:
FimH = biological target: T1, FimH (Escherichia coli, UniProt Q1R2J4); experiment: Hemagglutination inhibition (HAI) assay with UTI89 bacteria and guinea pig red blood cells; assay type: cell-based; settings: concentration reducing bacterial agglutination of guinea pig red blood cells by greater than 90%; UTI89 bacteria
T1 construct: endogenous in cells; host or cells: E. coli UTI89 bacteria
Experimental: “HAI or EC>90” is that concentration of the FimH inhibitor/antagonist which reduces the bacterial agglutination of guinea pig red blood cells by greater than 90%.
HAI Assay The hemagglutination inhibition (HAI) assay was performed with UTI89 bacteria and guinea pig red blood cells, as previously described (S. J. Hultgren, W. R. Schwan, A. J. Schaeffer, J. L. Duncan Infect. Immun. 1986, 54, 613-620). Compounds not listed were not tested.

UTI89 bacteria = experiment: Biofilm inhibition assay; assay type: cell-based; settings: read-out: Biofilm prevention IC50
Experimental: Biofilm Assay The biofilm inhibition assay was performed with UTI89 bacteria as previously described (L. Cegelski, J. S. Pinkner, N. D. Hammer, C. K. Cusumano, C. S. Hung, E. Chorell, V. Aberg, J. N. Walker, P. C. Seed, F. Almqvist, M. R. Chapman, S. J. Hultgren Nature Chem. Biol. 2009, 5, 913-919). Compounds not listed were not tested.

FimHL = FimHL (Escherichia coli, UniProt P08191); experiment: Differential scanning fluorimetry (DSF); assay type: binding; settings: purified FimHL 10 μM with mannoside 100 μM; mean of two biological replicates
Experimental: Differential scanning fluorimetry (DSF) Purified FimHL (10 μM) in the absence or presence of mannoside (100 μM) was combined with 5× SYPRO Orange in a 50 μl reaction mixture buffered in 20 mM HEPES pH 7.5, 150 mM NaCl (HBS) and 0.4% DMSO. Binding equilibria were established by allowing the reaction mixtures to incubate at 23° C. for 30 min. These reaction mixtures were then placed in 96-well clear-bottom PCR plates and subjected to a melt curve from 20-90° C. in 0.5° C. increments of 15 seconds, each followed by a fluorescence read of the “HEX” channel in a Bio-Rad CFX96 thermocycler (Bio-Rad, Hercules, Calif.). Melt curves were fitted to the Boltzmann equation (y=A2+(A1−A2)/(1+exp((x−xo)/dx)) where xo is the Tm) to determine the melting temperature (Tm) using GraphPad Prism 6 (San Diego Calif.). Melting temperatures are represented as the mean and standard error of two biological replicates, each of which consisted of three technical replicates. Compounds not listed were not tested.

Row | SMILES | HAI titer EC>90 (FimH) [µM] | IC50 (UTI89 bacteria) [nM] | DSF Melting Temp (FimHL) [°C]
1 | Cc1cc(-n2cc(-c3cccnc3)nn2)ccc1O[C@H]1O[C@H](CO)[C@@H](O)[C@H](O)[C@@H]1O [Example 2, 2-methyl-4-[4-(pyridin-3-yl)-1H-1,2,3-triazol-1-yl]phenyl α-D-mannopyranoside] | 0.032 | 524 | 74.4
2 | Cc1cc(-n2cc(-c3ccccc3)nn2)ccc1O[C@H]1O[C@H](CO)[C@@H](O)[C@H](O)[C@@H]1O [Example 4, 2-methyl-4-[4-(phenyl)-1H-1,2,3-triazol-1-yl]phenyl α-D-mannopyranoside] | 0.032 | 320 | 74.1
3 | Cc1cc(-c2ccc3ccnc(N)c3c2)ccc1O[C@H]1O[C@H](CO)[C@@H](O)[C@H](O)[C@@H]1O [Example 14, 7-[4′-(α-D-mannopyranosyloxy)-3′-methylphenyl]-isoquinolin-1-amine] | 0.02 | 336 | 75.1
4 | Cc1cc(-c2cccc3c(N)nccc23)ccc1O[C@H]1O[C@H](CO)[C@@H](O)[C@H](O)[C@@H]1O [Example 17, 5-[4′-(α-D-mannopyranosyloxy)-3′-methylphenyl]-isoquinolin-1-amine] | 0.062 |  | 
5 | Cc1cc(-c2cccc(-c3nnn[nH]3)c2)ccc1O[C@H]1O[C@H](CO)[C@@H](O)[C@H](O)[C@@H]1O [Example 18, 3-Methyl-3′-(2H-tetrazol-5-yl)[1,1′-biphenyl]-4-yl α-D-mannopyranoside] | 0.125 |  | 
6 | Cc1cc(-c2ccc3c(c2)C(=O)NCC3)ccc1OC1OC(CO)C(O)C(O)C1O [Example 21, 3,4-Dihydro-7-[4′-(α-D-mannopyranosyloxy)-3′-methylphenyl]-1(2H)-iso-quinolinone] | 0.032 | 247 | 75.0
7 | CNC(=O)c1cc(C(=O)NCCCCCCNC(=O)CCCCC[N+]2=C(/C=C/C=C/C=C3/c4ccc5ccccc5c4C(C)(C)N3C)C(C)(C)c3ccc4ccccc4c32)cc(-c2ccc(OC3OC(CO)C(O)C(O)C3O)c(C)c2)c1 [Example 22, N^3-(Cyanine5.5)-4′-(α-D-mannopyranosyl)-N^5,3′-dimethyl-[1,1′biphenyl]-3,5-dicarboxamide chloride] | 2 |  | 
8 | CNC(=O)c1cc(C(=O)O)cc(-c2ccc(O[C@H]3O[C@H](CO)[C@@H](O)[C@H](O)[C@@H]3O)c(C)c2)c1 [Example 23, 4′-(α-D-mannopyranosyloxy)-3′-methyl-5-[(methylamino)carbonyl]-[1,1′biphenyl]-3-carboxylic acid] | 0.032 |  | 
9 | Cc1cc(-c2cncc(C(=O)O)c2)ccc1O[C@H]1O[C@H](CO)[C@@H](O)[C@H](O)[C@@H]1O [Example 24, 5-[4′-(α-D-mannopyranosyloxy)-3′-methylphenyl]-3-pyridinecarboxylic acid] | 0.25 |  | 
10 | Cc1cc(-c2cc3[nH]c(=O)[nH]c(=O)c3s2)ccc1O[C@H]1O[C@H](CO)[C@@H](O)[C@H](O)[C@@H]1O [Example 25, 6-[4′-(α-D-mannopyranosyloxy)-3′-methylphenyl]-thieno[3,2-d]pyrimidine-2,4(1H,3H)-dione] | 0.024 |  | 
11 | Cc1cc(-c2ccc3ccn(C(C)C)c(=O)c3c2)ccc1O[C@H]1O[C@H](CO)[C@@H](O)[C@H](O)[C@@H]1O [Example 26, 2-isopropyl-7-[4′-(α-D-mannopyranosyloxy)-3′-methylphenyl]-1(2H)-isoquinolinone] | 0.043 |  | 
12 | Cc1cc(-c2ccc3c(c2)C(=O)N(C(C)C)CC3)ccc1O[C@H]1O[C@H](CO)[C@@H](O)[C@H](O)[C@@H]1O [Example 27, 2-isopropyl-3,4-Dihydro-7-[4′-(α-D-mannopyranosyloxy)-3′-methylphenyl]-1(2H)-isoquinolinone] | 0.032 |  | 
13 | Cc1cc(-n2cc(-c3ccccc3N)nn2)ccc1O[C@H]1O[C@H](CO)[C@@H](O)[C@H](O)[C@@H]1O [Example 28, 2-methyl-4-[4-(2-aminophenyl)-1H-1,2,3-triazol-1-yl]phenyl α-D-mannopyranoside] | 0.15 |  | 
14 | Cc1cc(Oc2ccccc2[N+](=O)[O-])c([N+](=O)[O-])cc1O[C@H]1O[C@H](CO)[C@@H](O)[C@H](O)[C@@H]1O [Example 29, 2-[4-(α-D-mannopyranosyloxy)-5-methyl-2-nitrophenoxy]nitrobenzene] | 1 |  | 
15 | CC(=O)Nc1ccccc1Oc1cc(C)c(O[C@H]2O[C@H](CO)[C@@H](O)[C@H](O)[C@@H]2O)cc1[N+](=O)[O-] [Example 30, N-(2-[4-(α-D-mannopyranosyloxy)-5-methyl-2-nitrophenoxy]phenyl)acetamide] | 1.5 |  | 
16 | CC(=O)Nc1cccc(Oc2cc(C)c(O[C@H]3O[C@H](CO)[C@@H](O)[C@H](O)[C@@H]3O)cc2[N+](=O)[O-])c1 [Example 31, N-(3-[4-(α-D-mannopyranosyloxy)-5-methyl-2-nitrophenoxy]phenyl)acetamide] | 0.5 |  | 
17 | Cc1cc(Oc2ccc(C#N)cc2)c([N+](=O)[O-])cc1O[C@H]1O[C@H](CO)[C@@H](O)[C@H](O)[C@@H]1O [Example 32, 4-[4-(α-D-mannopyranosyloxy)-5-methyl-2-nitrophenoxy]benzonitrile] | 0.5 |  | 
18 | CC(=O)Nc1ccc(Oc2cc(C)c(O[C@H]3O[C@H](CO)[C@@H](O)[C@H](O)[C@@H]3O)cc2[N+](=O)[O-])cc1 [Example 33, N-(4-[4-(α-D-mannopyranosyloxy)-5-methyl-2-nitrophenoxy]phenyl)acetamide] | 0.25 |  | 
19 | Cc1cc(Oc2ccc3ccncc3c2)c([N+](=O)[O-])cc1O[C@H]1O[C@H](CO)[C@@H](O)[C@H](O)[C@@H]1O [Example 34, 7-[4-(α-D-mannopyranosyloxy)-5-methyl-2-nitrophenoxy]isoquinoline] | 0.125 |  | 
20 | Cc1cc(Oc2ccccc2C#N)c([N+](=O)[O-])cc1O[C@H]1O[C@H](CO)[C@@H](O)[C@H](O)[C@@H]1O [Example 35, 2-[4-(α-D-mannopyranosyloxy)-5-methyl-2-nitrophenoxy]benzonitrile] | 1 |  | 
21 | Cc1cc(Oc2ccc3cccnc3c2)c([N+](=O)[O-])cc1O[C@H]1O[C@H](CO)[C@@H](O)[C@H](O)[C@@H]1O [Example 36, 7-[4-(α-D-mannopyranosyloxy)-5-methyl-2-nitrophenoxy]quinoline] | 0.5 |  | 
22 | CS(=O)(=O)c1ccc(-c2ccc(O[C@H]3O[C@H](CO)[C@@H](O)[C@H](O)[C@@H]3O)c(Cl)c2)cc1 [Example 37, 3-chloro-4′-(methylsulfonyl)biphenyl-4-yl α-D-mannopyranoside] | 0.15 |  | 
23 | Cc1cc(-c2ccc3cc[nH]c(=O)c3c2)cc(C)c1OC1OC(CO)C(O)C(O)C1O [Example 38, 7-[4′-(α-D-mannopyranosyloxy)-3′,5′-dimethylphenyl]-1(2H)-iso-quinolinone] | 0.266 |  | 
24 | CNC(=O)c1cccc(-c2ccc(O[C@H]3O[C@H](CO)[C@@H](O)[C@H](O)[C@@H]3O)c(C#N)c2)c1 [Example 39, 4′-(α-D-mannopyranosyloxy)-3′-cyano-N-methyl-1,1′biphenyl-3-carboxamide] | 0.188 |  | 
